The record followed here is patent US9296760B2, “Antibacterial compounds” (JANSSEN SCIENCES IRELAND UC, priority 2012, dated 2016).

The test system of series [1] is S. aureus. Description: Antibacterial susceptibility testing, IC90 determination with 10% human serum. It counts as cell-based, Staphylococcus aureus. Conditions: Staphylococcus aureus, S. aureus with human serum at final concentration of 10%; read-out: STA + 10% HS (361.169) IC90. On the procedure:
(§1) Antibacterial Susceptibility Testing: IC90 Determination MIC assays were performed by the broth microdilution method in a 96-well format (flat-bottom microtitre plates) with a final volume of 0.1 ml Mueller Hinton broth containing two-fold serial dilutions of compounds and inoculated with 5×10^5 CFU/ml of bacteria (standard inoculum size according to CLSI guidelines). Inhibitors are typically varied over the range of 63 to 0.49 μM. The final DMSO concentration in the assay was 1.25% (maximum tolerable DMSO concentration=6%). In the assays where the effect of human serum on the activity of the compounds against S. aureus was tested, human serum was added at a final concentration of 10%. The plates were incubated at 35° C. for 16-20 hours. At the end of incubation the bacterial growth was quantified fluorometrically. For this, resazurin was added to all wells and the plates were re-incubated. The incubation time is dependent on the type of bacteria. A change in color from blue to pink indicated the growth of bacteria. The fluorescence was read in computer-controlled fluorometer (Fluoroskan Ascent FL, Labsystems) at an excitation wavelength 540 nm and an emission wavelength of 590 nm. The % growth inhibition achieved by the compounds was calculated according to standard methods. The IC90 (expressed in μg/ml) was defined as the 90% inhibitory concentration for bacterial growth. A panel of reference compounds were simultaneously tested for QC approval. The results are depicted in the table(s) below (STA+10% HS).

Series [2] has as its target T1, S. aureus ATCC 29213 FabI (Staphylococcus aureus, UniProt Q6GI75).
T1 sequence (Q6GI75 1-256): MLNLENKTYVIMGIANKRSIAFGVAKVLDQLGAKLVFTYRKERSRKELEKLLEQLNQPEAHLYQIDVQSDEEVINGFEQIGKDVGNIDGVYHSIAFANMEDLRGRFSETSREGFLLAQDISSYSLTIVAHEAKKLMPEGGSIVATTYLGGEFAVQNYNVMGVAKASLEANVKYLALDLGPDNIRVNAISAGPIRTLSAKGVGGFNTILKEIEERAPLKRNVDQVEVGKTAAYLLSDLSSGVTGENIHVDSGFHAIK
Briefly: Staphylococcus aureus FabI enzyme inhibition assay. It counts as biochemical. The following applies: NADH consumption, 30 minutes, read-out: FabI (300.235) IC50 (converted). On the procedure:
Y.1 FabI Enzyme Inhibition: Staphylococcus aureus FabI Enzyme Inhibition Assay
FabI enzyme inhibition assays were carried out in half-area, 384-well microtitre plates. […] The reaction mixtures were incubated for 30 minutes at room temperature and the reaction was stopped by adding 200 mM Tris buffer (pH 9.0) to create a pH-shift. The consumption of NADH was monitored by measuring the change in absorbance at […]. By comparing sample readings to those of negative (absence of compound) and positive (absence of enzyme) controls, the percent inhibition of enzymatic activity of the compounds was determined A best-fit curve is fitted by a minimum of squares method. From this an IC50-value (expressed in μg/ml), resulting in 50% inhibition of enzymatic activity, was obtained.

Series [3] concerns Staphylococcus aureus ATCC 29213. Description: Antibacterial susceptibility testing, IC90 determination (broth microdilution, resazurin). The class given is cell-based. The following applies: Staphylococcus aureus, ATCC29213, S. aureus ATCC 29213; 90% inhibitory concentration for bacterial growth; read-out: STA (361.159) IC90. On the procedure:
Y.2 In Vitro Method for Testing Compounds for Antibacterial Activity Against Various Bacterial Strains
Preparation of Bacterial Suspensions for Susceptibility Testing
The following bacteria were used: Staphylococcus aureus ATCC 29213, methicillin-resistant Staphylococcus aureus (MRSA) ATCC 700788 and Escherichia coli ATCC 35218. The bacteria used in this study were grown overnight in flasks containing 100 ml Mueller-Hinton broth (Difco cat. nr. 0757-17) in sterile de-ionized water, with shaking, at 37° C. Stocks were store at −70° C. until use.
Bacteria were incubated on a tryptic soy agar plate containing 5% sheep blood (Becton Dickinson cat. nr. 254053) for 18-24 hours at 35° C. in aerobic conditions (first passage). For the second passage, fresh Mueller-Hinton broth is inoculated with 5-10 colonies and grown overnight at 35° C. until turbidity (reaching log-phase) in aerobic conditions is reached. The bacterial suspension is then adjusted to 0.5 McFarland density and further diluted 1:100 in Mueller Hinton broth medium. This is used as inoculum.
The result(s) are depicted the table below (for STA ATCC 29213).
Antibacterial Susceptibility Testing: IC90 Determination
as §1, with “MIC” for “Antibacterial Susceptibility Testing: IC90 Determination MIC”, “approval.” for “approval. The results are depicted in the table(s) below (STA+10% HS).”
(In general: Dilution methods test growth across graded concentrations, often in twofold steps.)

A short description of series [4]: Cytotoxicity MTT assay. The class given is cell-based, Human. Conditions: human, HelaM cells, read-out: HELAM (222.125) CC50. On the procedure:
Cytotoxicity of the compounds was evaluated using the MTT assay. Human HelaM cells grown in 96-well plates were exposed to serial dilutions of the tested compounds (final volume of 0.2 ml) and incubated for 72 hours at 37° C. and 5% CO2 Inhibitors are typically varied over the range of 25 to 0.8 μM. The final DMSO concentration in the assay is 0.5%. MTT (3-(4,5-Dimethylthiazol-2-yl)-2,5-diphenyltetrazolium bromide, a tetrazole) was added and reduced to purple formazan only in living cells. Solubilization of the formazan crystals was achieved by adding 100 μl 2-propanol. Cell viability was determined by measuring the absorbance of the reduced formazan, giving a purple color, at 540 nm and 690 nm. The absorbance measured at 690 nm was automatically subtracted from the absorbance at 540 nm, to eliminate the effects of non-specific absorption. The percent cytotoxicity achieved by the compounds was calculated according to standard methods. Cytotoxicity is reported as CC50, the concentration that causes a 50% reduction in cell viability.
The results are depicted in the table(s) below (HELAM).
For orientation: Tetrazolium dyes change colour on reduction, which living cells bring about.

SMILES strings stand for the structures. ≈ marks a conversion by molar mass, not a printed value.

`Cn1nccc1C(=O)Nc1ccc(/C=C/C(=O)N2CCC=C(c3ccccc3)CC2)cn1` [compound 10] registered a melting point of 138 °C. For the same molecule, the IC90 in series [1] came to 2.07 µg/mL. The IC50 in series [2] is 1920 nM. Further, in series [3], the IC90 was found to be 0.92 µg/mL (≈ 2.15 µM). Moreover, the half-maximal cytotoxic concentration (CC50) at 72 h in series [4] is 5.44 µg/mL (≈ 12.7 µM).

With `O=C(Nc1ccc(/C=C/C(=O)N2CCC=C(c3ccccc3)CC2)cn1)c1ccncc1` [compound 13], the melting point was 98 °C. Moreover, in series [1], the IC90 amounted to 3.08 µg/mL. Besides, the IC50 in series [2] is 1250 nM. Moreover, the 90% effect concentration (IC90) in series [3] was found to be 1.41 µg/mL (≈ 3.32 µM). The cytotoxic concentration (CC50) at 72 h in series [4] was 4.29 µg/mL (≈ 10.1 µM).

For the molecule `Cn1cnc(C(=O)Nc2ccc(/C=C/C(=O)N3CCC=C(c4ccccc4)CC3)cn2)c1` [compound 17], the melting point came out at 134 °C. Moreover, the 90% effect concentration (IC90) in series [1] came out at 8.56 µg/mL. The IC50 in series [2] is 2410 nM. Moreover, in series [3], the IC90 was 4.29 µg/mL (≈ 10 µM). Also, the 50% cytotoxic concentration (CC50) at 72 h in series [4] is 13.9 µg/mL (≈ 32.5 µM).

Regarding `CN1CC(=O)Nc2ncc(/C=C/C(=O)N3CCC=C(c4cccs4)CC3)cc2C1` [compound 33], the melting point was in the range of 125 to 126 °C. In series [1], the 90% effect concentration (IC90) came to 0.26 µg/mL. Further, the IC50 in series [2] is 1250 nM. The IC90 in series [3] came to 0.32 µg/mL (≈ 0.783 µM). Further, the 50% cytotoxic concentration (CC50) at 72 h in series [4] was > 10.3 µg/mL.

Turning to `CC(C)C(=O)Nc1ccc(/C=C/C(=O)N2CCC=C(c3ccccc3)CC2)cn1` [compound 19], the melting point is 158 °C. Moreover, the IC90 in series [1] was determined as 20.9 µg/mL. The IC50 in series [2] is 1280 nM. Moreover, the 90% effect concentration (IC90) in series [3] was 6.32 µg/mL (≈ 16.2 µM). Moreover, the CC50 at 72 h in series [4] is 8.52 µg/mL (≈ 21.9 µM).

Turning to `O=C1Nc2ncc(/C=C/C(=O)N3CCC=C(c4ccccc4)CC3)cc2CN2CCOCC12` (centres unmarked) [compound 46], the melting point amounted to 227.76 °C. In series [1], the 90% effect concentration (IC90) came to 0.53 µg/mL. The IC50 in series [2] is 562 nM. For the same molecule, the 90% effect concentration (IC90) in series [3] was < 0.22 µg/mL. In addition, the CC50 at 72 h in series [4] was > 11.2 µg/mL.

As for `O=C(Nc1ccc(/C=C/C(=O)N2CCC=C(c3ccccc3)CC2)cn1)c1ccccc1` [compound 9], the melting point was found to be 158.31 °C. For the same molecule, the 90% effect concentration (IC90) in series [1] is 6.26 µg/mL. In addition, the half-inhibitory concentration (IC50) in series [2] is 1820 nM. Also, the 90% effect concentration (IC90) in series [3] amounted to 0.85 µg/mL (≈ 2.01 µM). For the same molecule, the CC50 at 72 h in series [4] was 4.24 µg/mL (≈ 10 µM).

For the molecule `CC(=O)Nc1ccc(/C=C/C(=O)N2CCC=C(c3ccccc3)CC2)cn1` [compound 6], the melting point was 152 °C. Further, the IC90 in series [1] was 1.9 µg/mL. Besides, in series [2], the IC50 is ~802 nM. For the same molecule, the concentration for an effect of 90% (IC90) in series [3] was 0.69 µg/mL (≈ 1.91 µM). Further, the CC50 at 72 h in series [4] is > 9.08 µg/mL.

`Cc1cc(C(=O)Nc2ccc(/C=C/C(=O)N3CCC=C(c4ccccc4)CC3)cn2)no1` [compound 16]: the melting point is 169.37 °C. Moreover, the IC90 in series [1] is 6.71 µg/mL. Besides, in series [2], the 50% inhibitory concentration (IC50) was 1540 nM. For the same molecule, in series [3], the 90% effect concentration (IC90) was determined as 3.29 µg/mL (≈ 7.68 µM). Besides, the cytotoxic concentration (CC50) at 72 h in series [4] was 7.89 µg/mL (≈ 18.4 µM).

In turn, `O=C(Nc1ccc(/C=C/C(=O)N2CCC=C(c3ccccc3)CC2)cn1)C1CCCC1` [compound 18] gave a melting point of 141 °C. The IC90 in series [1] is > 26.2 µg/mL. Besides, the half-maximal inhibitory concentration (IC50) in series [2] is 2050 nM. Further, in series [3], the concentration for an effect of 90% (IC90) came out at 6.29 µg/mL (≈ 15.1 µM). Further, in series [4], the CC50 at 72 h amounted to 2.62 µg/mL (≈ 6.31 µM).

Turning to `O=C1Nc2ncc(/C=C/C(=O)N3CCC=C(c4ccccc4)CC3)cc2CN2CCSCC12` (centres unmarked) [compound 49], the melting point was found to be 224.06 °C. The IC90 in series [1] is 1.23 µg/mL. Further, the half-maximal inhibitory concentration (IC50) in series [2] was 1110 nM. Further, the IC90 in series [3] was 0.39 µg/mL (≈ 0.847 µM). Also, the CC50 at 72 h in series [4] came to 4.88 µg/mL (≈ 10.6 µM).

`O=C1Nc2ncc(/C=C/C(=O)N3CCC=C(c4ccccc4)CC3)cc2CO1` [compound 41]: the melting point came out at 244.33 °C. Moreover, the IC90 in series [1] is 0.67 µg/mL. Moreover, the IC50 in series [2] was 986 nM. The IC90 in series [3] is 0.6 µg/mL (≈ 1.6 µM). For the same molecule, the half-maximal cytotoxic concentration (CC50) at 72 h in series [4] is > 9.43 µg/mL.

`COc1ccc(F)cc1C1=CCCN(C(=O)/C=C/c2ccc(NC(=O)c3cncc(C)c3)nc2)CC1` [compound 5] displayed a melting point of 120 °C. The 90% effect concentration (IC90) in series [1] was 2.83 µg/mL. For the same molecule, the IC50 in series [2] is 1790 nM. In addition, in series [3], the IC90 is 0.66 µg/mL (≈ 1.36 µM). Moreover, the CC50 at 72 h in series [4] stood at 7.8 µg/mL (≈ 16 µM).

Broadly, the IC90 is the point of the concentration-response curve where the effect stands at 90%. As a reminder, the IC50 is the midpoint of a concentration-inhibition curve. By melting point is commonly meant the temperature of the solid-liquid transition. As a reminder, the CC50 is the concentration at which the toxic effect on the cells reaches its halfway point.
